Test results: ChEMBL document CHEMBL2203142, “Biomimetic in vitro oxidation of lapachol: a model to predict and analyse the in vivo phase I metabolism of bioactive compounds” (Eur J Med Chem, 2012)

Experiments:
Parameters in all cases: dose 25 mg/kg
Plasma [1] = assay: Metabolic stability in Wistar rat plasma assessed as alpha-lapachone level at 25 mg/kg after 12 hrs; type: ADME, organism-based; settings: in vivo
Plasma [2] = assay: Metabolic stability in Wistar rat plasma assessed as dehydro-alpha-lapachone level at 25 mg/kg after 1.5 hrs; type: ADME, organism-based; settings: in vivo
Plasma [3] = assay: Metabolic stability in Wistar rat plasma assessed as alpha-lapachone level at 25 mg/kg after 1.5 hrs; type: ADME, organism-based; settings: in vivo
Plasma [4] = assay: Metabolic stability in Wistar rat plasma assessed as alpha-lapachone level at 25 mg/kg after 3 hrs; type: ADME, organism-based; settings: in vivo
[5] = Plasma concentration in Wistar rat at 25 mg/kg after 12 hrs; type: ADME, organism-based
[6] = Plasma concentration in Wistar rat at 25 mg/kg after 1.5 hrs; type: ADME, organism-based
Rattus norvegicus = assay: Toxicity in Wistar rat at 25 mg/kg; type: organism-based; settings: in vivo

## CC(C)=CCC1=C(O)C(=O)c2ccccc2C1=O [LAPACHOL]
Plasma [1]
  Drug metabolism: 0.7 µg/mL
Plasma [2]
  Drug metabolism: 0.6 µg/mL
Plasma [3]
  Drug metabolism: 1.4 µg/mL
Plasma [4]
  Drug metabolism: 6 µg/mL
[5]
  concentration at 12 h: 2000 ng/mL
[6]
  concentration at 1.5 h: 37000 ng/mL
Rattus norvegicus
  Activity: Non-toxic
